In patent US12662714B2, “Method for separation of adjacent lanthanide elements” (UT-Battelle, LLC, priority 2022, dated 2026):

Experiments:
[1] = Solvent extraction of Lns, separation factor Gd/La; conditions: 0.1 M DGA, 1 M HNO3, 1 h
Experimental: (§1) General procedure: a 500 microliter (μL) aqueous phase consisting of 7 mM Ln(III) (0.5 mM of each Ln(III)) in 1 M HNO3 without or with aqBLPhen 1 (3, 13, or 25 mM) was contacted with an equal volume of organic phase containing 0.1 M DGA (3, 4, or 5). The two phases were contacted in a 1:1 ratio of organic/aqueous by end-over-end rotation in individual 1.8 mL capacity snap-top Eppendorf tubes using a rotating wheel in an airbox set at 25.5±0.5° C. Contacts were performed in triplicate with a contact time of 1 hour. The samples were centrifuged at 1811 g for 2 min at room temperature to separate the phases. Each triplicate was then sub-sampled, using a 300 μL aliquot of the aqueous phase transferred to individual polypropylene tubes and diluted with 2% HNO3 for analysis using ICP-MS or ICP-OES. Two samples of the initial lanthanide solution were similarly prepared.
(§2) The ability of 1 and DGA to separate Lns was evaluated using a two-component, immiscible solvent system: nitric acid (aqueous phase containing 1) and n-dodecane with 10 vol % 1-octanol (oil phase containing DGA). The amount of Ln partitioned from the aqueous phase into the oil phase was measured using inductively coupled plasma optical emission spectroscopy or mass spectrometry. The Ln concentration in each phase was then used to calculate the separation efficiency.
(§3) The percentage of Lns in the aqueous and the oil phases is presented in FIGS. 1a-1i. for each DGA in the absence and presence of the aqueous complexant 1 (E=([Ln1]/[Ln1]0)×100%). The distribution ratios (i.e., D=[Ln1]org/[Ln1]aq) for select Lns are listed in Table 1, which also include selectivities (i.e., SFLn1/Ln2=DLn1/DLn2), for several Ln pairs. An efficient separation of Lns was achieved when DLn1>1 and DLn2<1 or ELn1>50% and ELn2<50%. […] Neither of the three DGAs can separate Lns in a single extraction stage.

[2] = Solvent extraction of Lns, distribution ratio of Sm; conditions: 0.1 M DGA, 1 M HNO3, 1 h
Experimental: as §1, §2, §3

[3] = Solvent extraction of Lns, distribution ratio of Nd; conditions: 0.1 M DGA, 1 M HNO3, 1 h
Experimental: as §1, §2, §3

[4] = Solvent extraction of Lns, separation factor Sm/Nd; conditions: 0.1 M DGA, 1 M HNO3, 1 h
Experimental: as §1, §2, §3

[5] = Solvent extraction of Lns, distribution ratio of La; conditions: 1 M HNO3, 1 h
Experimental: as §1, §2, §3

[6] = Solvent extraction of Lns, separation factor Dy/Nd; conditions: 0.1 M DGA, 1 M HNO3, 1 h
Experimental: as §1, §2, §3

[7] = Solvent extraction of Lns, distribution ratio of Gd; conditions: 0.1 M DGA, 1 M HNO3, 1 h
Experimental: as §1, §2, §3

[8] = Solvent extraction of Lns, separation factor Tb/Gd; conditions: 0.1 M DGA, 1 M HNO3, 1 h
Experimental: as §1, §2, §3

[9] = Solvent extraction of Lns, separation factor Nd/Pr; conditions: 0.1 M DGA, 1 M HNO3, 1 h
Experimental: as §1, §2, §3

[10] = SAXS, radius of gyration of aggregates in solution; assay type: physicochemical
Experimental: The mesoscale structure of 1 and 1-Pr complexes in the aqueous solution and the local coordination environment around Pr in the 1-Pr structure were investigated using small-angle X-ray scattering (SAXS) and extended X-ray absorption fine structure (EXAFS) spectroscopy at the Pr L3 edge, respectively. In the absence of Pr, 13 mM of 1 in 1 M HNO3 forms large aggregates with a radius of gyration (Rg) of ˜15 A, as represented by the steepest slope in FIG. 5a. The addition of smaller amounts of Pr (2.5 mM) reduces the aggregate size in solution by ˜5 A.
Under conditions where 1 is expected to be fully coordinated with Pr (assuming the formation of [Pr-(1)2(NO3)3], when [Pr]=7.5 mM), the aggregates further reduce in size (Rg=6.7 A). This is consistent with the trends seen in the NMR data above. In addition, variable temperature NMR was taken of 1 without and with Pr. At elevated temperatures (up to 313 K), the spectral quality of 1 degrades dramatically and is irreversible, which is indicative of additional aggregate formation in solution. In the presence of Pr, however, the ^1H chemical shifts representing 1 remain unchanged and the peaks narrow due to increased molecular motion.

[11] = 1H NMR titration, binding constants for La complexes; conditions: 1 M DNO3
From the text: Complexation of 1 with lanthanides was further assessed using nuclear magnetic resonance (NMR) spectroscopy. […] As the concentration of La increases (top to bottom), a downfield shift of ˜1.1 ppm occurs in the most downfield aromatic ^1H of 1, confirming complex formation. […] For 1 alone, some heterogeneity and broadening in the peak structure is observed, which can be attributed to aggregate formation. While the ethylene glycol units solubilize 1, the hydrophobic cores still cluster together to form aggregate structures (vide infra). As the La concentration increases, it disrupts these clusters and stabilizes 1-La units. The change in chemical shift of the most downfield aromatic ^1H was used to assess binding constants for La complexes with 1 in 1 M DNO3. The results were fitted using commercial software to yield binding constants of K1>10^2 M^−1 and K2>>10^5 M^−1 for the 1:1 and 2:1 ligand to metal binding modes, respectively. […] In the Lu titration, some downfield shift was observed, but the peaks became increasingly heterogenous and broad. This may be attributed to poor binding affinity where transient interactions occur, but no stable structure was formed, which was consistent with the selectivity data presented above.

Solubility = assay type: physicochemical
From the text: The solubility of 1 in 0.9 M nitric acid (HNO3) is >0.2 M. The three DGAs selected for this study were: N,N′-dimethyl-N,N′-di(n-octyl)diglycolamide (DMDODGA, 3), N,N,N′,N′-tetra(n-octyl)diglycolamide (TODGA, 4), and N,N-didodecyl-2-((1-hexyl-2-oxopiperidin-3-yl)oxy)acetamide (DDHPA, 5), whose structures are shown above. […] However, they differ in terms of binding affinity for lanthanides in the order 3>4>5. The stability of DGA-Ln complexes is affected by the size of N-alkyl substituents on the DGA ligand; larger substituents tend to obstruct the metal ion binding site that is decorated with three oxygen donor groups, resulting in diminished affinity for Lns with lower effective nuclear charge. Ligand 2, with unconstrained amide groups, was synthesized as a control substrate.
However, its performance in separating Lns is very different.

[12] = Extraction of 14 Lns from aqueous phase into oil phase
Experimental: as §1, §2, §3

[13] = REE(III)-HCl-EHEHPA system; cited from earlier work
[14] = [1] 0 mM, 0.1 M DGA in n-dodecane with 10 vol % 1-octanol, 0.5 mM each Ln

CCCCCCCCCCCCN(CCCCCCCCCCCC)C(=O)COC1CCCN(CCCCCC)C1=O (stereo not shown) [Ligand 5, N,N-didodecyl-2-((1-hexyl-2-oxopiperidin-3-yl)oxy)acetamide]
SFGd/La separation factor ([1]; [1] 0 mM): 128
SFGd/La separation factor ([1]; [1] 3 mM): 109
SFGd/La separation factor ([1]; [1] 13 mM): 12
SFGd/La separation factor ([1]; [1] 25 mM): 14
DSm distribution ratio ([2]; [1] 0 mM): 6.21
DSm distribution ratio ([2]; [1] 3 mM): 2.53
DSm distribution ratio ([2]; [1] 13 mM): 0.16
DSm distribution ratio ([2]; [1] 25 mM): 0.17
DNd distribution ratio ([3]; [1] 0 mM): 0.87
DNd distribution ratio ([3]; [1] 3 mM): 0.32
DNd distribution ratio ([3]; [1] 13 mM): 0.08
DNd distribution ratio ([3]; [1] 25 mM): 0.07
SFSm/Nd separation factor ([4]; [1] 0 mM): 7.2
SFSm/Nd separation factor ([4]; [1] 3 mM): 8.0
SFSm/Nd separation factor ([4]; [1] 13 mM): 2.0
SFSm/Nd separation factor ([4]; [1] 25 mM): 2.5
DLa distribution ratio [5, 14]: 0.18
DLa distribution ratio ([5]; [1] 3 mM, 0.1 M DGA): 0.12
DLa distribution ratio ([5]; [1] 13 mM, 0.1 M DGA): 0.08
DLa distribution ratio ([5]; [1] 25 mM, 0.1 M DGA): 0.06
SFDy/Nd separation factor ([6]; [1] 0 mM): 130
SFDy/Nd separation factor ([6]; [1] 3 mM): 260
SFDy/Nd separation factor ([6]; [1] 13 mM): 133
SFDy/Nd separation factor ([6]; [1] 25 mM): 123
DGd distribution ratio ([7]; [1] 0 mM): 23.0
DGd distribution ratio ([7]; [1] 3 mM): 13.4
DGd distribution ratio ([7]; [1] 13 mM): 0.98
DGd distribution ratio ([7]; [1] 25 mM): 0.88
SFTb/Gd separation factor ([8]; [1] 0 mM): 3.3
SFTb/Gd separation factor ([8]; [1] 3 mM): 3.7
SFTb/Gd separation factor ([8]; [1] 13 mM): 5.1
SFTb/Gd separation factor ([8]; [1] 25 mM): 5.8
SFNd/Pr separation factor ([9]; [1] 0 mM): 2.0
SFNd/Pr separation factor ([9]; [1] 3 mM): 1.8
SFNd/Pr separation factor ([9]; [1] 13 mM): 0.9
SFNd/Pr separation factor ([9]; [1] 25 mM): 1.0

O=c1[nH]c(COCCO)c(COCCO)c2cc3ccc4cc5c(COCCO)c(COCCO)[nH]c(=O)c5nc4c3nc12 [Ligand 1, 3,4,9,10-tetrakis((2-hydroxyethoxy)methyl)-2,11-dihydrodipyrido[3,4-b:4′,3′-j]1,10 phenanthroline-1,12-dione]
reduction of aggregate size ([10]; 13 mM of 1, Pr 2.5 mM): ~5 A
radius of gyration (Rg) of aggregates ([10]; 13 mM of 1, [Pr]=7.5 mM): 6.7 A
radius of gyration (Rg) of aggregates ([10]; 13 mM of 1 in 1 M HNO3, absence of Pr): ~15 A
binding constant K1 (1:1 ligand to metal) [11]: > 10^2 M^−1
binding constant K2 (2:1 ligand to metal) [11]: > 10^5 M^−1
solubility (Solubility; aqueous buffer, in 0.9 M nitric acid (HNO3)): > 200 mM

O=C(c1ccc2ccc3ccc(C(=O)N(CCOCCO)CCOCCO)nc3c2n1)N(CCOCCO)CCOCCO [Ligand 2]
affinity for light lanthanides as aqueous complexant ([12]; 13 mM in aqueous phase, FIG. 2): limited affinity for light lanthanides
aqueous solubility (Solubility; aqueous): excellent aqueous solubility

CCCCCCCCN(CCCCCCCC)C(=O)COCC(=O)N(CCCCCCCC)CCCCCCCC [Ligand 4, N,N,N′,N′-tetra(n-octyl)diglycolamide]
SFGd/La separation factor ([1]; [1] 0 mM): 153
SFGd/La separation factor ([1]; [1] 3 mM): 783
SFGd/La separation factor ([1]; [1] 13 mM): 413
SFGd/La separation factor ([1]; [1] 25 mM): 308
DSm distribution ratio ([2]; [1] 0 mM): 120
DSm distribution ratio ([2]; [1] 3 mM): 28.1
DSm distribution ratio ([2]; [1] 13 mM): 2.35
DSm distribution ratio ([2]; [1] 25 mM): 1.82
DNd distribution ratio ([3]; [1] 0 mM): 18.6
DNd distribution ratio ([3]; [1] 3 mM): 2.18
DNd distribution ratio ([3]; [1] 13 mM): 0.15
DNd distribution ratio ([3]; [1] 25 mM): 0.14
SFSm/Nd separation factor ([4]; [1] 0 mM): 6.4
SFSm/Nd separation factor ([4]; [1] 3 mM): 13
SFSm/Nd separation factor ([4]; [1] 13 mM): 16
SFSm/Nd separation factor ([4]; [1] 25 mM): 13
extraction of Lns from the aqueous phase into the oil phase ([12]; 0.1 M DGA alone, 14 Lns 0.5 mM each, 1 M HNO3): reduced affinity for light Lns
DLa distribution ratio [5, 14]: 2.52
DLa distribution ratio ([5]; [1] 3 mM, 0.1 M DGA): 0.21
DLa distribution ratio ([5]; [1] 13 mM, 0.1 M DGA): 0.05
DLa distribution ratio ([5]; [1] 25 mM, 0.1 M DGA): 0.05
SFDy/Nd separation factor ([6]; [1] 0 mM): 70
SFDy/Nd separation factor ([6]; [1] 3 mM): 408
SFDy/Nd separation factor ([6]; [1] 13 mM): 1052
SFDy/Nd separation factor ([6]; [1] 25 mM): 782
DGd distribution ratio ([7]; [1] 0 mM): 386
DGd distribution ratio ([7]; [1] 3 mM): 164
DGd distribution ratio ([7]; [1] 13 mM): 19.3
DGd distribution ratio ([7]; [1] 25 mM): 14.2
SFTb/Gd separation factor ([8]; [1] 0 mM): 2.7
SFTb/Gd separation factor ([8]; [1] 3 mM): 3.4
SFTb/Gd separation factor ([8]; [1] 13 mM): 5.4
SFTb/Gd separation factor ([8]; [1] 25 mM): 5.3
SFNd/Pr separation factor ([9]; [1] 0 mM): 2.2
SFNd/Pr separation factor ([9]; [1] 3 mM): 2.7
SFNd/Pr separation factor ([9]; [1] 13 mM): 2.2
SFNd/Pr separation factor ([9]; [1] 25 mM): 1.8

CCCCC(CC)COP(=O)(O)CC(CC)CCCC (stereo not shown) [EHEHPA, 2-ethylhexylphosphonic acid mono-(2-ethylhexyl) ester]
selectivity for Nd over Pr [13]: 1.17
